Assay results from US11702428B2, “Chemical compounds as inhibitors of interleukin-1 activity” (Genentech, Inc., priority 2017, dated 2023).
Read-outs that look alike come from different tables or passages of the source.

How the values were obtained:
NLRP3 inflammasome = NLRP3 inflammasome (Homo sapiens, UniProt Q96P20); assay: NLRP3 inflammasome activation assay in PBMCs (LPS priming, nigericin), IL-1β by ELISA; type: cell-based; set-up: Human peripheral blood mononuclear cells (PBMCs); host or cells: primary human PBMCs from healthy donors; settings: LPS, nigericin; for IC50: read-out: PBMC IL-1β IC50
Procedure: Some of the following assays were used to determine the inhibitory activity of the compounds on the NLRP3 inflammasome using a common inflammasome activation stimuli-nigericin.
Human peripheral blood mononuclear cells (PBMCs), consisting of lymphocytes (T, B and NK cells), monocytes and dendritic cells, were freshly isolated from human peripheral blood from healthy donors. Cells were obtained through an IRB approved donor program by iXCells Biotechnologies where all the donors were tested for bacterial and viral infections. Cells were purified from peripheral blood using ficoll gradient centrifugation.
Cells were then stimulated with 10 uM Nigericin (Sigma Aldrich; InvivoGen) for 1.5 h. Plates were centrifuged at 1,500 rpm for 3 minutes to pellet cells and supernatant was transferred into new plates for subsequent experiments.
For ELISA assays cells were seeded into 96-well plates. Post study, supernatants were removed and the levels of mature IL-1β, IL-18 and TNFα (Quantikine ELISA, R&D systems) were measured in cell conditioned media by ELISA according to manufacturer's instructions.

[1] = system: LPS and nigericin stimulated cells; assay: cells; type: cell-based; settings: LPS and nigericin stimulated cells, CellTiter-Glo; for IC50: Homo sapiens, read-out: CTG protective IC50
Procedure: Viability of compound treated cells is measured using CellTiter-Glo® assay (Promega, Madison, Wis.) that measures the ATP content of cells which is proportional to the number of live cells within a well. This is a counter-screen to establish that the reduction of IL-1β levels in LPS and nigericin stimulated and compound treated cells is not due to cytotoxicity, but rather through the inhibition of the inflammasome pathway. Compounds inhibiting NRLP3 inflammasome activation ultimately increase the viability of LPS and nigericin stimulated cells by blocking NLRP3 mediated pyroptosis that would otherwise lead to cell lysis.

Pharmacokinetics in mice = type: in vivo, CD-1 Mice; settings: for Cmax / clearance / half-life / AUC(0-t) / Vd: mouse, plasma; for AUC(0-t): read-out: AUC 0-24 hr; for Vd: read-out: Vz
Procedure: The intravenous dosing solutions were administered at 1 mg/kg and were made by dissolving the test article into the formulations shown below. The oral dosing suspensions or solutions were administered at 10 mg/kg and were made by dissolving the test article in the formulations shown below. Blood samples were collected into tubes containing either K2EDTA or sodium heparin and kept chilled on ice block or wet ice immediately following collection and during processing. After centrifugation, the resulting plasma samples were stored in a freezer at −80° C. until samples were analyzed. Pharmacokinetic parameters were determined following measurement of compound concentrations in plasma using standard bioanalytical methods at timepoints ranging from 0 to 24 hours.

[2] = Male CD-1 Mice, PO, 10 mg/kg, 0.5% MC
[3] = Female CD-1 Mice, PO, 10 mg/kg, 0.5% MC, 0.25% Tween 80

Chain of NLRP3 inflammasome (Q96P20 whole entry): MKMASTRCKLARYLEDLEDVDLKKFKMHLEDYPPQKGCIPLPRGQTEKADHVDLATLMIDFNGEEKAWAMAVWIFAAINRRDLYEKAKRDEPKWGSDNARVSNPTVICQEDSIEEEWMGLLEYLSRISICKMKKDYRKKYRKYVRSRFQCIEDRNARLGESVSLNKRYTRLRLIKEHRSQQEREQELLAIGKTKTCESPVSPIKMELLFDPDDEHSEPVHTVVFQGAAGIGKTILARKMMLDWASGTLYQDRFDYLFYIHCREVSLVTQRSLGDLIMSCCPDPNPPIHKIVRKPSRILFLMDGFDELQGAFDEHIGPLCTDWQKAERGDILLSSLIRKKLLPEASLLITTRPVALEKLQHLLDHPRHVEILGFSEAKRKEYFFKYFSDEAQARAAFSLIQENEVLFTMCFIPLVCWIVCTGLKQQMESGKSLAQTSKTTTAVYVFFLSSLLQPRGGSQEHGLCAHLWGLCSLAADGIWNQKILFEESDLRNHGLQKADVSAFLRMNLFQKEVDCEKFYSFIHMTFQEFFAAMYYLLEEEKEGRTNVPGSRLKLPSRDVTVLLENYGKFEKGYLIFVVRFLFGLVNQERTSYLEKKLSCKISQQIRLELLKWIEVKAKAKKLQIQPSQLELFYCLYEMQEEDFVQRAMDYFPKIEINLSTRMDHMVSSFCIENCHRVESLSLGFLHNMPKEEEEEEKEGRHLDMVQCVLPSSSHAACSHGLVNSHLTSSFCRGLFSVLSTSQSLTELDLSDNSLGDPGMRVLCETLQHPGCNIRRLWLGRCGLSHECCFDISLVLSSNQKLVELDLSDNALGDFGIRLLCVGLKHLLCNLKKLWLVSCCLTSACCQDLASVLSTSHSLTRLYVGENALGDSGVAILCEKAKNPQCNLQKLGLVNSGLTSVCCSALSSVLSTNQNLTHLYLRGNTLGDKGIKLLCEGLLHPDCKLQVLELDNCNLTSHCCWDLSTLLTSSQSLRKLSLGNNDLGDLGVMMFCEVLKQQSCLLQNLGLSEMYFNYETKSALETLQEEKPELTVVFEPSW

SMILES	IC50 (NLRP3 inflammasome) [µM]	IC50 [1] [µM]	further results
CCNC1COc2c(S(=O)(=O)NC(=O)Nc3c4c(cc5c3CCC5)CCC4)cnn2C1 (stereo not shown)	< 0.1	< 0.1	
O=C(Nc1c(C2CC2)cc(Cl)cc1C1CC1)NS(=O)(=O)c1cnn2c1OCCC2	0.1 to 1	0.1 to 1	
CCO[C@@H]1COc2c(S(=O)(=O)NC(=O)Nc3c4c(cc5c3CCC5)CCC4)cnn2C1	0.1 to 1	0.1 to 1	
CC(=O)NCC1COc2c(S(=O)(=O)NC(=O)Nc3c4c(cc5c3CCC5)CCC4)cnn2C1 (stereo not shown)	< 0.1	< 0.1	
O=C(Nc1c(C2CC2)cc(Cl)c2c1CCC2)NS(=O)(=O)c1cnn2c1OCCC2	0.1 to 1	1 to 10	
O=C(Nc1c2c(cc3c1CCC3)CCC2)NS(=O)(=O)c1cnn2c1OC[C@@H](O)C2	0.1 to 1	< 0.1	
O=C(Nc1cc(C2CC2)cc(C2CC2)c1)NS(=O)(=O)c1cnn2c1OCCC2	0.1 to 1	< 0.1	
O=C(Nc1c2c(cc3c1CCC3)CCC2)NS(=O)(=O)c1cnn2c1OCC2	0.1 to 1	< 0.1	
CO[C@H]1COc2c(S(=O)(=O)NC(=O)Nc3c(C(C)C)cc(Cl)cc3C(C)C)cnn2C1	0.1 to 1	0.1 to 1	
CC(C)c1cc(C#N)cc(C(C)C)c1NC(=O)NS(=O)(=O)c1cnn2c1OCCC2	0.1 to 1	< 0.1	
CCN[C@@H]1COc2c(S(=O)(=O)NC(=O)Nc3c4c(cc5c3CCC5)CCC4)cnn2C1	1 to 10	1 to 10	
O=C(Nc1c2c(cc3c1CCC3)CCC2)NS(=O)(=O)c1cnn2c1C(F)CCC2 (stereo not shown)	0.1 to 1	< 0.1	
CO[C@H]1COc2c(S(=O)(=O)NC(=O)Nc3c(C(C)C)cc(F)cc3C(C)C)cnn2C1	< 0.1	< 0.1	
C#CCOC1COc2c(S(=O)(=O)NC(=O)Nc3c4c(cc5c3CCC5)CCC4)cnn2C1 (stereo not shown)	< 0.1	< 0.1	
CN(CC1COc2c(S(=O)(=O)NC(=O)Nc3c4c(cc5c3CCC5)CCC4)cnn2C1)C(=O)OC(C)(C)C (stereo not shown)	0.1 to 1	0.1 to 1	
CC1(C)COc2c(S(=O)(=O)NC(=O)Nc3c4c(cc5c3CCC5)CCC4)cnn2C1 [A]			Bioavailability (% F) (Pharmacokinetics in mice; [2]): 64 % F; Cmax (Pharmacokinetics in mice; Male CD-1 Mice, IV, 1 mg/kg): 9.2 µg/mL; clearance (Pharmacokinetics in mice; Male CD-1 Mice, IV, 1 mg/kg): 0.04 L/h/kg; half-life (Pharmacokinetics in mice; Male CD-1 Mice, IV, 1 mg/kg): 2.8 h; AUC(0-t) (Pharmacokinetics in mice; Male CD-1 Mice, IV, 1 mg/kg): 29.2 µg·h/mL; Vd (Pharmacokinetics in mice; Male CD-1 Mice, IV, 1 mg/kg): 0.137 L/kg; Cmax (Pharmacokinetics in mice; [2]): 22.7 µg/mL; half-life (Pharmacokinetics in mice; [2]): 3.4 h; AUC(0-t) (Pharmacokinetics in mice; [2]): 186 µg·h/mL
CC[C@H]1COc2c(S(=O)(=O)NC(=O)Nc3c4c(cc5c3CCC5)CCC4)cnn2C1	< 0.1	< 0.1	
O=C(Nc1c2c(cc3c1CCC3)CCC2)NS(=O)(=O)c1cc2n(n1)CCNC2	0.1 to 1	< 0.1	
O=C(Nc1c2c(cc3c1CCC3)CCC2)NS(=O)(=O)c1cnn2c1OCC(N1CC(F)C1)C2 (stereo not shown)	0.1 to 1	< 0.1	
O=C(Nc1c2c(cc3c1CCC3)CCC2)NS(=O)(=O)c1cnn2c1OCC1(CC1)C2 [B]			Bioavailability (% F) (Pharmacokinetics in mice; [2]): 100 % F; Cmax (Pharmacokinetics in mice; Male CD-1 Mice, IV, 1 mg/kg): 11.7 µg/mL; clearance (Pharmacokinetics in mice; Male CD-1 Mice, IV, 1 mg/kg): 0.05 L/h/kg; half-life (Pharmacokinetics in mice; Male CD-1 Mice, IV, 1 mg/kg): 1.9 h; AUC(0-t) (Pharmacokinetics in mice; Male CD-1 Mice, IV, 1 mg/kg): 20.2 µg·h/mL; Vd (Pharmacokinetics in mice; Male CD-1 Mice, IV, 1 mg/kg): 0.13 L/kg; Cmax (Pharmacokinetics in mice; [2]): 63 µg/mL; half-life (Pharmacokinetics in mice; [2]): 1.9 h; AUC(0-t) (Pharmacokinetics in mice; [2]): 256 µg·h/mL
CNCC1COc2c(S(=O)(=O)NC(=O)Nc3c4c(cc5c3CCC5)CCC4)cnn2C1 (stereo not shown)	1 to 10	1 to 10	
C[C@@H]1COc2c(S(=O)(=O)NC(=O)Nc3c4c(cc5c3CCC5)CCC4)cnn2C1	< 0.1	< 0.1	

SMILES	IC50 (NLRP3 inflammasome) [µM]	IC50 [1] [µM]	further results
NC1COc2c(S(=O)(=O)NC(=O)Nc3c4c(cc5c3CCC5)CCC4)cnn2C1 (stereo not shown)	0.1 to 1	< 0.1	
O=C(Nc1c2c(cc3c1CCC3)CCC2)NS(=O)(=O)c1cnn2c1OCC(N1CCC1)C2 (stereo not shown)	< 0.1	< 0.1	
CCOC1COc2c(S(=O)(=O)NC(=O)Nc3c4c(cc5c3CCC5)CCC4)cnn2C1 (stereo not shown)	< 0.1	< 0.1	
O=C(Nc1c2c(c(F)c3c1CCC3)CCC2)NS(=O)(=O)c1cnn2c1OCCC2	< 0.1	< 0.1	
O=C(Nc1c2c(cc3c1CCC3)CCC2)NS(=O)(=O)c1ncn2c1OCCC2	0.1 to 1	0.1 to 1	
CN1CCn2nc(S(=O)(=O)NC(=O)Nc3c4c(cc5c3CCC5)CCC4)cc2C1	1 to 10	0.1 to 1	
CN[C@H]1COc2c(S(=O)(=O)NC(=O)Nc3c4c(cc5c3CCC5)CCC4)cnn2C1 [D]			Bioavailability (% F) (Pharmacokinetics in mice; [3]): 69 % F; Cmax (Pharmacokinetics in mice; Female CD-1 Mice, IV, 1 mg/kg): 3.31 µg/mL; clearance (Pharmacokinetics in mice; Female CD-1 Mice, IV, 1 mg/kg): 0.3 L/h/kg; half-life (Pharmacokinetics in mice; Female CD-1 Mice, IV, 1 mg/kg): 1.6 h; AUC(0-t) (Pharmacokinetics in mice; Female CD-1 Mice, IV, 1 mg/kg): 3.4 µg·h/mL; Vd (Pharmacokinetics in mice; Female CD-1 Mice, IV, 1 mg/kg): 0.69 L/kg; Cmax (Pharmacokinetics in mice; [3]): 13.7 µg/mL; half-life (Pharmacokinetics in mice; [3]): 1.7 h; AUC(0-t) (Pharmacokinetics in mice; [3]): 23.5 µg·h/mL
CC(C)OC1COc2c(S(=O)(=O)NC(=O)Nc3c4c(cc5c3CCC5)CCC4)cnn2C1 (stereo not shown)	0.1 to 1	< 0.1	
O=C(Nc1c2c(cc3c1CCC3)CCC2)NS(=O)(=O)c1cnn2c1OCC(F)C2 (stereo not shown) [drawing 517]	0.1 to 1	< 0.1	
Cc1nn2c(c1S(=O)(=O)NC(=O)Nc1c3c(cc4c1CCC4)CCC3)OCCC2	0.1 to 1	< 0.1	
CC(C)c1cc(F)cc(C(C)C)c1NC(=O)NS(=O)(=O)c1cnn2c1OCCC2	0.1 to 1	0.1 to 1	
O=C(Nc1c2c(cc3c1CCC3)CCC2)NS(=O)(=O)c1cnn2c1OCCCC2 [drawing 515]	< 0.1	< 0.1	
CC[C@@H]1COc2c(S(=O)(=O)NC(=O)Nc3c4c(cc5c3CCC5)CCC4)cnn2C1	0.1 to 1	0.1 to 1	
COC1CN([C@H]2COc3c(S(=O)(=O)NC(=O)Nc4c5c(cc6c4CCC6)CCC5)cnn3C2)C1 [E]			Bioavailability (% F) (Pharmacokinetics in mice; [3]): 53 % F; Cmax (Pharmacokinetics in mice; Female CD-1 Mice, IV, 1 mg/kg): 2.83 µg/mL; clearance (Pharmacokinetics in mice; Female CD-1 Mice, IV, 1 mg/kg): 0.64 L/h/kg; half-life (Pharmacokinetics in mice; Female CD-1 Mice, IV, 1 mg/kg): 1.6 h; AUC(0-t) (Pharmacokinetics in mice; Female CD-1 Mice, IV, 1 mg/kg): 1.57 µg·h/mL; Vd (Pharmacokinetics in mice; Female CD-1 Mice, IV, 1 mg/kg): 1.47 L/kg; Cmax (Pharmacokinetics in mice; [3]): 8.62 µg/mL; half-life (Pharmacokinetics in mice; [3]): 1.9 h; AUC(0-t) (Pharmacokinetics in mice; [3]): 8.27 µg·h/mL
COC1(C)COc2c(S(=O)(=O)NC(=O)Nc3c4c(cc5c3CCC5)CCC4)cnn2C1 (stereo not shown)	0.1 to 1	0.1 to 1	
COCC1COc2c(S(=O)(=O)NC(=O)Nc3c4c(cc5c3CCC5)CCC4)cnn2C1 (stereo not shown)	0.1 to 1	< 0.1	
CN(C)[C@H]1COc2c(S(=O)(=O)NC(=O)Nc3c4c(cc5c3CCC5)CCC4)cnn2C1 [C]			Bioavailability (% F) (Pharmacokinetics in mice; [2]): 33 % F; Cmax (Pharmacokinetics in mice; Male CD-1 Mice, IV, 1 mg/kg): 5.29 µg/mL; clearance (Pharmacokinetics in mice; Male CD-1 Mice, IV, 1 mg/kg): 0.34 L/h/kg; half-life (Pharmacokinetics in mice; Male CD-1 Mice, IV, 1 mg/kg): 1.3 h; AUC(0-t) (Pharmacokinetics in mice; Male CD-1 Mice, IV, 1 mg/kg): 2.99 µg·h/mL; Vd (Pharmacokinetics in mice; Male CD-1 Mice, IV, 1 mg/kg): 0.64 L/kg; Cmax (Pharmacokinetics in mice; [2]): 7.53 µg/mL; half-life (Pharmacokinetics in mice; [2]): 1 h; AUC(0-t) (Pharmacokinetics in mice; [2]): 9.95 µg·h/mL
Cc1ccc2cccnc2c1NC(=O)NS(=O)(=O)c1cnn2c1OCCC2			PBMC IL-1β IC50 (NLRP3 inflammasome): No Curve; CTG protective IC50 [1]: No Curve
CC1CCOc2c(S(=O)(=O)NC(=O)Nc3c4c(cc5c3CCC5)CCC4)cnn21 (stereo not shown) [drawing 516]	< 0.1	< 0.1	
CC(C)(C)OC(=O)NCC1COc2c(S(=O)(=O)NC(=O)Nc3c4c(cc5c3CCC5)CCC4)cnn2C1 (stereo not shown)	< 0.1	< 0.1	
Cc1ccc(S(=O)(=O)N2CC3(COc4c(S(=O)(=O)NC(=O)Nc5c6c(cc7c5CCC7)CCC6)cnn4C3)C2)cc1	1 to 10	0.1 to 1	
